Measurements published in US20250114473A1, “COMPOUND FOR CONJUGATION, CONJUGATE AND PHARMACEUTICAL COMPOSITION COMPRISING THE SAME” (priority 2023, published 2025).
Numbered stars: 1 amine (or outer) side, 2 acyl side, 3 side chain; on linkers, the order of the positions; unused ones are H or OH. Square brackets hold non-standard residues; d marks the D form. Peptide text beside a SMILES is read from it. * marks the point of attachment. Dolaproine = CO[C@@H]([C@@H]1CCCN1)[C@@H](C)C(=O)O; Dil = CC[C@H](C)[C@H](NC)[C@@H](CC(=O)O)OC; PABC = O=C(OCc1ccc(N[*:1])cc1)[*:2]; X1 = C[C@@H](N*)[C@@H](O)c1ccccc1; Cit = NC(=O)NCCC[C@H](N)C(=O)O; NMeV = CN[C@H](C(=O)O)C(C)C

Tests used:
[1] = tested on: MCF-7 (HER2 1+); assay: Anti-proliferation assay (CCK-8) of linker-drug combinations, drugs and cleaved products; type: cell-based
Experimental: (§1) Additionally, a series of experiments were conducted, including anti-proliferation assays for linker-drug combinations (i.e. the compounds in the present disclosure), the drugs thereof, and the cleaved products thereof after cleavage by the Cathepsin B enzyme in cells. These assays were performed using HER2-expressing cell lines. MCF-7 and SK-BR-3 cell lines were seeded at a density of 1.5×10^3 to 1×10^4 cells/well in 90 μL of the corresponding culture medium, and cultured at 37° C. in a CO2 incubator (Forma/ThermoFisher (370) or BINDER (CB130)) with a range of dilutions (0-1000 nM) of the compounds in the present disclosure, the drugs thereof, and the cleaved products thereof. Cell density for each sample was recorded by measuring the absorbance of Cell Counting Kit-8 (CCK-8) at 450 nm. Data analysis was performed using GraphPad Prism 8.0.1, and the best-fit four-parameter dose-response curve was selected. Half Maximal Inhibitory Concentration (IC50) values were determined via nonlinear regression; consistency between batches was assessed using One-way ANOVA. The relevant experimental results are detailed in Table 4. […] Such reduced toxicity of the linker-drug combinations (i.e, the compounds in the present disclosure) offers significant advantages in moiety-drug conjugate applications, including better biocompatibility, enhanced therapeutic efficacy, and greater dosing flexibility.

[2] = tested on: SK-BR-3 (HER2 3+); assay: as above; type: cell-based; settings: 0-1000 nM
Experimental: as §1

[3] = Water solubility testing (dissolved with minimal DMSO, precipitated by addition of water); type: physicochemical; settings: precipitated by addition of water to DMSO solution
Experimental: Briefly, the moiety-compound conjugates was dissolved with minimal DMSO and precipitated by the addition of water. […] However, Entry 5 and Entry 4 are conjugates with two-arm, with no PEG linker or two PEG4 linker, respectively, which were precipitated in 19.5% and 30.8% Water/DMSO. Thus, the results of water solubility of the conjugates are consistent with the inventors' hypothesis.

[4] = Plasma stability, released drug by LC-MS/MS; type: in vitro ADME; settings: for drug release trend: over a 13-day period; for free drug percentage: 13 days
Text: To further advance the research, a set of the compounds in the present disclosure, FL-F21N-L111-P204 and FL-F21N-L106-P204, each containing single-arm and dual-arm respectively, was selected for plasma stability testing in both humans and rats. These were then compared in detail with commercially available Deruxtecan (Dxd) and VC-PAB-MMAE to evaluate their stability and safety in blood.
These calculations were based on standard drugs (e.g., Eribulin, MMAE, Dxd) and they were accurately measured using liquid chromatography-tandem mass spectrometry (LC-MS/MS). […] This trend provides an in-depth understanding of the drug release dynamics.
These experimental results provide crucial data supporting the efficacy and safety of the compounds in the present disclosure.

[5] = tested on: MDA-MB-231 (HER2−); assay: Cell toxicity testing of moiety-drug conjugates (CCK-8); type: cell-based; settings: 0-500 nM
Experimental: (§2) The experiment involved optimizing seeding densities (1.5×10^3 to 1.5×10^4 cells/well) for each cell line (SK-BR-3, MCF-7, MDA-MB-231, MDA-MB-436) in 90 IL, of culture medium per well in a 96-well plate for 2-hour incubation. Next, 10 μL of a series of diluted ADC solutions (0-500 nM) were added to each well. The concentration of each ADC solution and measurements at four time points (24, 48, 72, and 96 hours) were conducted in triplicate. […] Data analysis was performed with GraphPad Prism 8.0.1, employing a four-parameter logistic curve-fit program.

[6] = tested on: MCF-7 (HER2 1+); assay: as above; type: cell-based
Experimental: as §2

[7] = tested on: SK-BR-3 (HER2 3+); assay: as above; type: cell-based; settings: 0-500 nM
Experimental: as §2

[8] = tested on: MDA-MB-436 (HER2−); assay: as above; type: cell-based; settings: 0-500 nM
Experimental: as §2

Compound	Precipitation in % Water/DMSO [3] [%]	IC50 ([1]; 0-1000 nM) [nM]	IC50 [2] [nM]	IC50 [5] [nM]	IC50 ([6]; 0-500 nM) [nM]	IC50 [7] [nM]	IC50 [8] [nM]	further results
C=C1C[C@@H]2CC[C@@]34CC5O[C@H]6C(O3)[C@H]3O[C@H](CC[C@@H]3O[C@H]6[C@H]5O4)CC(=O)C[C@@H]3[C@@H](OC)[C@@H](C[C@H](O)CNC(=O)OCCOCCOCCOCCNC(=O)OCc4ccc(NC(=O)[C@H](CCCNC(N)=O)NC(=O)[C@@H](NC(=O)CCCCCN5C(=O)C=CC5=O)C(C)C)cc4)O[C@H]3CC3O[C@@H](CCC1O2)C[C@@H](C)C3=C [FL-F21N-L111-P204, Mal-Val-Cit-PAB-PEG4-Eribulin]	24.5	–	–	–	–	–	–	IC50 ([1]; Homo sapiens, MCF7, 0-1000 nM): 45.5 nM; IC50 ([2]; Homo sapiens): 30.8 nM; drug release trend ([4]; human plasma): stable drug release trends; drug release trend ([4]; rat plasma): stable drug release trends
C=C1C[C@@H]2CC[C@@]34CC5O[C@H]6[C@@H](O3)[C@H]3O[C@H](CC[C@@H]3O[C@H]6C5O4)CC(=O)C[C@H]3C(C[C@H]4OC(CC[C@@H]1O2)C[C@@H](C)C4=C)O[C@H](C[C@H](O)CNC(=O)OCCOCCOCCOCCOCCOCCOCCOCCOCCOCCOCCOCCNC(=O)OCc1ccc(NC(=O)[C@H](CCCNC(N)=O)NC(=O)[C@@H](NC(=O)CCCCCN2C(=O)C=CC2=O)C(C)C)cc1)[C@@H]3OC (stereo partly drawn) [FL-F21N-L162-P204, Mal-Val-Cit-PEG12-Eribulin]	31.5	–	–	–	–	–	–	–
Mal-Val-Cit-PAB-(PEG4-Eribulin)2 [FL-F21N-L106-P204]	30.8	26.3	13	–	–	–	–	free drug percentage ([4]; human plasma): 2.74%; drug release trend ([4]; human plasma): stable drug release trends; free drug percentage ([4]; rat plasma): 3.50%; drug release trend ([4]; rat plasma): stable drug release trends
Trastuzumab-Mal-Val-Cit-PAB-(PEG4-Eribulin)2 [A701-L106-P204-D08]	–	–	–	75.2	0.0229	0.0216	14.6	–
Deruxtecan [L155-P209 (Deruxtecan), reference compound]	–	512	432	–	–	–	–	free drug percentage ([4]; human plasma): 5.19%; free drug percentage ([4]; rat plasma): 0.70%
Trastuzumab-Mal-Val-Cit-PAB-PEG4-Eribulin [A701-L111-P204-D08]	–	–	–	> 250	0.045	0.012	33	–
C=C1C[C@@H]2CC[C@@]34C[C@H]5O[C@H]6[C@@H](O3)[C@H]3O[C@H](CC[C@@H]3O[C@H]6[C@H]5O4)CC(=O)C[C@@H]3[C@@H](OC)[C@@H](C[C@H](O)CN)O[C@H]3C[C@H]3O[C@@H](CC[C@@H]1O2)C[C@@H](C)C3=C [P204, Eribulin, reference compound]	–	–	–	–	–	–	–	IC50 ([5]; Homo sapiens): 2.07 nM; IC50 ([6]; Homo sapiens, MCF7, 0-500 nM): 0.337 nM; IC50 ([7]; Homo sapiens): 0.244 nM; IC50 ([8]; Homo sapiens): 1.28 nM; IC50 ([1]; Homo sapiens, MCF7, 0-1000 nM): 0.337 nM; IC50 ([2]; Homo sapiens): 0.244 nM
Trastuzumab-Mal-Val-Cit-PAB-PEG4-Eribulin [A701-L111-P204-D04]	–	–	–	148	3.83	0.012	> 250	–
Mal-Val-Cit-PAB-(Eribulin)2 [FL-F21N-L107-P204]	19.5	14.2	9.24	–	–	–	–	–
Dxd [P209, reference compound]	–	9.53	5.51	135	9.53	5.51	5.12	–
Trastuzumab-Mal-Val-Cit-PAB-(Eribulin)2 [A701-L107-P204-D08]	–	–	–	–	0.0229	0.0172	–	–
CC[C@H](C)[C@@H]([C@@H](CC(=O)N1CCC[C@H]1[C@H](OC)[C@@H](C)C(=O)N[C@H](C)[C@@H](O)c1ccccc1)OC)N(C)C(=O)[C@@H](NC(=O)[C@H](C(C)C)N(C)C(=O)OCc1ccc(NC(=O)[C@H](CCCNC(N)=O)NC(=O)[C@@H](N)C(C)C)cc1)C(C)C [VC-PAB-MMAE, reference compound] (H-V[Cit][PABC][NMeV]V[Dil][Dolaproine]-X1)	–	–	–	–	–	–	–	free drug percentage ([4]; human plasma): 0.56%; free drug percentage ([4]; rat plasma): 5.03%
C=C1C[C@@H]2CC[C@@]34CC5O[C@H]6[C@@H](O3)[C@H]3O[C@H](CC[C@@H]3O[C@H]6C5O4)CC(=O)C[C@H]3C(C[C@H]4OC(CC[C@@H]1O2)C[C@@H](C)C4=C)O[C@H](C[C@H](O)CNC(=O)OCCOCCOCCOCCOCCOCCOCCOCCOCCOCCOCCOCCOCCOCCOCCOCCOCCOCCOCCOCCOCCOCCOCCOCCNC(=O)OCc1ccc(NC(=O)[C@H](CCCNC(N)=O)NC(=O)[C@@H](NC(=O)CCCCCN2C(=O)C=CC2=O)C(C)C)cc1)[C@@H]3OC (stereo partly drawn) [FL-F21N-L163-P204, Mal-Val-Cit-PEG24-Eribulin]	38.9	–	–	–	–	–	–	–
